Laboratory results as given in US9580430B2, “9H-pyrimido[4,5-B]indoles and related analogs as BET bromodomain inhibitors” (THE REGENTS OF THE UNIVERSITY OF MICHIGAN, priority 2014, dated 2017).
Where two headings read alike, the source gives them in different places.

Assays:
[1] = molecular target: T1, recombinant BRD4 BD1 (Homo sapiens, UniProt O60885); test: Competitive fluorescence-polarization (FP) binding assay, BRD4 BD1; settings: for Ki: read-out: Binding affinities (FP) BRD4BD1 Ki; on IC50 (nM) BRD4 BD1: probe 1.5 nM
T1 construct: for recombinant BRD4 BD1 and BRD4 BD2 proteins
In short: (§1)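 Buffer: 100 mM potassium phosphate, pH 6.5, 0.01% Triton X-100; compounds added in buffer with 40% ethylene glycol to preformed complex of fluorescent probe with BRD4 BD1 (10 nM final) or BD2 (6 nM final). After 30 min at room temperature, polarization read. IC50 from nonlinear fits of competition curves, with Ki.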

[2] = test system: MDA-MB-436; test: Cell growth inhibition, MDA-MB-436 breast cancer cells (WST-8); assay type: cell-based; settings: Homo sapiens, 4 days
In short: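 IC50 was computed from WST-8-based cell counting in MDA-MB-436 cells, with absorbance read at 450 nm.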

[3] = molecular target: T2, recombinant BRD4 BD2 (Homo sapiens, UniProt O60885); test: Competitive fluorescence-polarization (FP) binding assay, BRD4 BD2; settings: for Ki: read-out: Binding affinities (FP) BRD4BD2 Ki; on IC50 (nM) BRD4 BD2: probe 1.5 nM
T2 construct: for recombinant BRD4 BD1 and BRD4 BD2 proteins
In short: as §1

[4] = test system: LNCaP; test: Cell growth inhibition, LNCaP prostate cancer cells (Cell-Titer GLO); assay type: cell-based; settings: Homo sapiens, read-out: Cellular data LNCaP IC50
[5] = test system: MOLM-13; test: Cell growth inhibition, MOLM-13 leukemia cells (CellTiter-Glo); assay type: cell-based; settings: Homo sapiens, MOLM-13, 96 h; 4 days; read-out: IC50 (nM) MOLM-13 Cell Line (CellTiter-Glo assay)
In short: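 Luminescent ATP-based viability (CellTiter-Glo, 10-20 min at room temperature) in compound-treated MOLM-13 cells; the half-maximal inhibitory concentration was calculated from the readout.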

[6] = FP competitive binding, BRD4 BD1, read-out: Binding affinities (FP) BRD4BD1 IC50
[7] = FP competitive binding, BRD4 BD1
[8] = 96 h, MDA-MB-436 cells, read-out: Cellular data MDA-MB-436 IC50
[9] = FP competitive binding, BRD4 BD2, read-out: Binding affinities (FP) BRD4BD2 IC50
[10] = FP competitive binding, BRD4 BD2
[11] = competitive FP assay, protein 10 nM, probe […], read-out: IC50 (nM) BRD4 BD1
[12] = MDA-MB-436, 96 h, read-out: IC50 (nM) MDA-MB-436 Cell Line (WST assay)
[13] = competitive FP assay, protein 6 nM, probe […], read-out: IC50 (nM) BRD4 BD2

Structure (SMILES) | IC50 [1, 6] [nM] | Ki [1, 7] [nM] | IC50 [2, 8] [nM] | IC50 [3, 9] [nM] | Ki [3, 10] [nM] | IC50 [4] [nM] | IC50 [1, 11] [nM] | IC50 [2, 12] [nM] | IC50 [3, 13] [nM] | IC50 [5] [nM]
COc1c(-c2c(C)noc2C)cc2[nH]c3nc(C)nc(Nc4cc(C5CC5)nn4C)c3c2c1F [Cpd. No. 305] | > 5000 | – | 1190 | 850 | 342 | 1160 | – | – | – | –
COc1cc2c(cc1-c1c(C)noc1C)[nH]c1nc(C)nc(Nc3n[nH]c4ccccc34)c12 [Cpd. No. 58, 7-(3,5-Dimethylisoxazol-4-yl)-N-(1H-indazol-3-yl)-6-methoxy-2-methyl-9H-pyrimido[4,5-b]indol-4-amine] | – | – | – | – | – | – | 11 | 54.6 | 22.6 | 32
COc1cc2c(cc1-c1c(C)noc1C)[nH]c1nc(C)nc(Nc3nn(C)c4cccc(F)c34)c12 [Cpd. No. 132, 7-(3,5-Dimethylisoxazol-4-yl)-N-(4-fluoro-1-methyl-1H-indazol-3-yl)-6-methoxy-2-methyl-9H-pyrimido[4,5-b]indol-4-amine] | – | – | – | – | – | – | 68.6 | 224 | 718 | 97.5
COc1cc2c(cc1-c1c(C)noc1C)[nH]c1nc(C)nc(Nc3c(C(C)C)cnn3C)c12 [Cpd. No. 79, 7-(3,5-dimethylisoxazol-4-yl)-N-(4-isopropyl-1-methyl-1H-pyrazol-5-yl)-6-methoxy-2-methyl-9H-pyrimido[4,5-b]indol-4-amine] | – | – | – | – | – | – | 9.3 | 121 | 1.8 | 43.9
COc1cc2c(cc1-c1c(C)noc1C)[nH]c1nc(C)nc(Nc3nn(C)c4cccnc34)c12 [Cpd. No. 123, 7-(3,5-Dimethylisoxazol-4-yl)-6-methoxy-2-methyl-N-(1-methyl-1H-pyrazolo[4,3-b]pyridin-3-yl)-9H-pyrimido[4,5-b]indol-4-amine] | – | – | – | – | – | – | 257 | 1420 | 483 | 759
COc1cccc(Nc2nc(C)nc3[nH]c4cc(-c5c(C)noc5C)c(OC)cc4c23)c1 [Cpd. No. 213, 7-(3,5-dimethylisoxazol-4-yl)-6-methoxy-N-(3-methoxyphenyl)-2-methyl-9H-pyrimido[4,5-b]indol-4-amine] | – | – | – | – | – | – | 54 | 211 | 28 | 103
COc1cc2c(cc1-c1c(C)noc1C)[nH]c1nc(C)nc(Nc3cn(C)nc3C(C)C)c12 [Cpd. No. 181, 7-(3,5-dimethylisoxazol-4-yl)-N-(3-isopropyl-1-methyl-1H-pyrazol-4-yl)-6-methoxy-2-methyl-9H-pyrimido[4,5-b]indol-4-amine] | – | – | – | – | – | – | 4.4 | 22.9 | 10.2 | 22.2
COc1cc2c(cc1-c1c(C)noc1C)[nH]c1nc(C)nc(Nc3c(C)cnn3C3CCC3)c12 [Cpd. No. 198, N-(1-cyclobutyl-4-methyl-1H-pyrazol-5-yl)-7-(3,5-dimethylisoxazol-4-yl)-6-methoxy-2-methyl-9H-pyrimido[4,5-b]indol-4-amine] | – | – | – | – | – | – | 6.9 | 58.7 | 3.6 | 25.7
COc1cc2c(cc1-c1c(C)noc1C)[nH]c1nc(C)nc(Nc3ccnc4ccccc34)c12 [Cpd. No. 247, 7-(3,5-dimethylisoxazol-4-yl)-6-methoxy-2-methyl-N-(quinolin-4-yl)-9H-pyrimido[4,5-b]indol-4-amine] | – | – | – | – | – | – | 165 | 115 | 121 | 113
COc1cc2c(cc1-c1c(C)noc1C)[nH]c1nc(C)nc(Nc3cccc(C(F)(F)F)c3)c12 [Cpd. No. 214, 7-(3,5-dimethylisoxazol-4-yl)-6-methoxy-2-methyl-N-(3-(trifluoromethyl)phenyl)-9H-pyrimido[4,5-b]indol-4-amine] | – | – | – | – | – | – | 855 | 249 | 348 | 208
COc1cc2c(cc1-c1c(C)noc1C)[nH]c1nc(C)nc(Nc3cccc4c3CCN4)c12 [Cpd. No. 231, 7-(3,5-dimethylisoxazol-4-yl)-N-(indolin-4-yl)-6-methoxy-2-methyl-9H-pyrimido[4,5-b]indol-4-amine] | – | – | – | – | – | – | 35 | 79 | 44 | 28
COc1cc2c(cc1-c1c(C)noc1C)[nH]c1nc(C)nc(Nc3cnc(C)n3C)c12 [Cpd. No. 171, N-(1,2-dimethyl-1H-imidazol-5-yl)-7-(3,5-dimethylisoxazol-4-yl)-6-methoxy-2-methyl-9H-pyrimido[4,5-b]indol-4-amine] | – | – | – | – | – | – | 153 | 1530 | 79.5 | 609
COc1cc2c(cc1-c1c(C)noc1C)[nH]c1nc(C)nc(Sc3nnc(C)n3C(C)C)c12 [Cpd. No. 3, 4-(4-((4-Isopropyl-5-methyl-4H-1,2,4-triazol-3-yl)thio)-6-methoxy-2-methyl-9H-pyrimido[4,5-b]indol-7-yl)-3,5-dimethylisoxazole] | – | – | – | – | – | – | 540 | 386 | 183 | 38.4
COc1cc2c(cc1-c1c(C)noc1C)[nH]c1nc(C)nc(Nc3nn(CCO)c4ccccc34)c12 [Cpd. No. 131, 2-(3-((7-(3,5-Dimethylisoxazol-4-yl)-6-methoxy-2-methyl-9H-pyrimido[4,5-b]indol-4-yl)amino)-1H-indazol-1-yl)ethanol] | – | – | – | – | – | – | 9.6 | 97.6 | 51.4 | 32.7

Results, then the compound that gave them:

IC50 [1, 6] [nM] | Ki [1, 7] [nM] | IC50 [2, 8] [nM] | IC50 [3, 9] [nM] | Ki [3, 10] [nM] | IC50 [4] [nM] | IC50 [1, 11] [nM] | IC50 [2, 12] [nM] | IC50 [3, 13] [nM] | IC50 [5] [nM] | Structure (SMILES)
5.2 | 1.5 | 37 | 4.9 | 1 | 20 | – | – | – | – | COc1cc2c(cc1-c1c(C)noc1C)[nH]c1nc(N)nc(Nc3cc(C4CC4)nn3C3CC3)c12 [Cpd. No. 291, N4-(1,3-dicyclopropyl-1H-pyrazol-5-yl)-7-(3,5-dimethylisoxazol-4-yl)-6-methoxy-9H-pyrimido[4,5-b]indole-2,4-diamine]
4.8 | < 1 | 19 | 4.5 | < 1 | 12 | – | – | – | – | CCn1nc(C2CC2)cc1Nc1nc(N)nc2[nH]c3cc(-c4c(C)noc4C)c(OC)cc3c12 [Cpd. No. 290, N4-(3-cyclopropyl-1-ethyl-1H-pyrazol-5-yl)-7-(3,5-dimethylisoxazol-4-yl)-6-methoxy-9H-pyrimido[4,5-b]indole-2,4-diamine]
2 | < 1 | 12 | 2.3 | < 1 | 7 | – | – | – | – | COc1cc2c(cc1-c1c(C)noc1C)[nH]c1nc(N)nc(Nc3c4c(nn3C(C)C)CCC4)c12 [Cpd. No. 292, 7-(3,5-dimethylisoxazol-4-yl)-N4-(2-isopropyl-2,4,5,6-tetrahydrocyclopenta[c]pyrazol-3-yl)-6-methoxy-9H-pyrimido[4,5-b]indole-2,4-diamine]
– | – | – | – | – | – | 11.4 | 26 | 10.6 | 38.8 | COc1cc2c(cc1-c1c(C)noc1C)[nH]c1nc(C)nc(Nc3cc(C)nn3C3CCC3)c12 [Cpd. No. 119, N-(1-Cyclobutyl-3-methyl-1H-pyrazol-5-yl)-7-(3,5-dimethylisoxazol-4-yl)-6-methoxy-2-methyl-9H-pyrimido[4,5-b]indol-4-amine]
– | – | – | – | – | – | 59.9 | 319 | 93.7 | 201 | COc1cc2c(cc1-c1c(C)noc1C)[nH]c1nc(C)nc(Nc3c(C)c(C4CC4)nn3C)c12 [Cpd. No. 147, N-(3-Cyclopropyl-1,4-dimethyl-1H-pyrazol-5-yl)-7-(3,5-dimethylisoxazol-4-yl)-6-methoxy-2-methyl-9H-pyrimido[4,5-b]indol-4-amine]
– | – | – | – | – | – | 9.7 | 55.1 | 8 | 10.3 | COc1cc2c(cc1-c1c(C)noc1C)[nH]c1nc(C)nc(Nc3cc(C)nn3C)c12 [Cpd. No. 8, N-(1,3-Dimethyl-1H-pyrazol-5-yl)-7-(3,5-dimethylisoxazol-4-yl)-6-methoxy-2-methyl-9H-pyrimido[4,5-b]indol-4-amine]
– | – | – | – | – | – | 33.9 | 132 | 55.1 | 27.1 | CCn1nc(C)c(C)c1Nc1nc(C)nc2[nH]c3cc(-c4c(C)noc4C)c(OC)cc3c12 [Cpd. No. 186, 7-(3,5-dimethylisoxazol-4-yl)-N-(1-ethyl-3,4-dimethyl-1H-pyrazol-5-yl)-6-methoxy-2-methyl-9H-pyrimido[4,5-b]indol-4-amine]
– | – | – | – | – | – | 9 | 23 | 5.5 | 11 | COc1cc2c(cc1-c1c(C)noc1C)[nH]c1nc(C)nc(Nc3cc(C4(C)CC4)nn3C)c12 [Cpd. No. 251, 7-(3,5-dimethylisoxazol-4-yl)-6-methoxy-2-methyl-N-(1-methyl-3-(1-methylcyclopropyl)-1H-pyrazol-5-yl)-9H-pyrimido[4,5-b]indol-4-amine]
